Laboratory results taken from PubChem BioAssay AID1259407 (Chemical Carcinogenesis Research Information System (CCRIS), 2018).
The source made the active and inactive calls. The rule behind the calls is not given here.

Test system: CCRIS mutagenicity, Ames/micronucleus/aberration tests
Assay: CCRIS mutagenicity studies
[1] = Test System: AMES SALMONELLA TYPHIMURIUM, Strain/Indicator: TA98, Metabolic Activation: NONE, Method: PREINCUBATION
[2] = Test System: AMES SALMONELLA TYPHIMURIUM, Strain/Indicator: TA98, Metabolic Activation: NONE, Method: STANDARD PLATE
[3] = Test System: AMES SALMONELLA TYPHIMURIUM, Strain/Indicator: TA100, Metabolic Activation: NONE, Method: PREINCUBATION
[4] = Test System: AMES SALMONELLA TYPHIMURIUM, Strain/Indicator: TA100, Metabolic Activation: NONE, Method: STANDARD PLATE
[5] = Test System: AMES SALMONELLA TYPHIMURIUM, Strain/Indicator: TA100, Metabolic Activation: S-9, Method: PREINCUBATION

SMILES: Nc1cc2nc3ccccc3nc2cc1O
- mutagenic call (Test System: AMES SALMONELLA TYPHIMURIUM, Strain/Indicator: TA98(1,8-DNP6), Metabolic Activation: NONE, Method: PREINCUBATION): inactive; negative
- mutagenic call (Test System: AMES SALMONELLA TYPHIMURIUM, Strain/Indicator: TA98(1,8-DNP6), Metabolic Activation: S-9, Method: PREINCUBATION): inactive; negative
- mutagenic call [1]: inactive; negative
- mutagenic call [2]: active; positive
- mutagenic call (Test System: AMES SALMONELLA TYPHIMURIUM, Strain/Indicator: TA98, Metabolic Activation: RAT, LIVER, S-9, AROCLOR 1254, Method: STANDARD PLATE): active; positive
- mutagenic call (Test System: AMES SALMONELLA TYPHIMURIUM, Strain/Indicator: TA98, Metabolic Activation: S-9, Method: PREINCUBATION): inactive; negative
- mutagenic call (Test System: AMES SALMONELLA TYPHIMURIUM, Strain/Indicator: TA100(OAT-), Metabolic Activation: NONE, Method: PREINCUBATION): inactive; negative
- mutagenic call (Test System: AMES SALMONELLA TYPHIMURIUM, Strain/Indicator: TA100(OAT-), Metabolic Activation: S-9, Method: PREINCUBATION): inactive; negative
- mutagenic call [3]: inactive; negative
- mutagenic call [4]: inactive; negative
- mutagenic call (Test System: AMES SALMONELLA TYPHIMURIUM, Strain/Indicator: TA100, Metabolic Activation: RAT, LIVER, S-9, AROCLOR 1254, Method: STANDARD PLATE): active; positive
- mutagenic call [5]: inactive; negative
- mutagenic call (Test System: AMES SALMONELLA TYPHIMURIUM, Strain/Indicator: TA1537, Metabolic Activation: NONE, Method: STANDARD PLATE): active; positive
- mutagenic call (Test System: AMES SALMONELLA TYPHIMURIUM, Strain/Indicator: TA1537, Metabolic Activation: RAT, LIVER, S-9, AROCLOR 1254, Method: STANDARD PLATE): active; positive
- mutagenic call (Test System: AMES SALMONELLA TYPHIMURIUM, Strain/Indicator: YG1024, Metabolic Activation: PLANT CELL-FREE EXTRACT, Method: PREINCUBATION): active; positive
- mutagenic call (Test System: AMES SALMONELLA TYPHIMURIUM, Strain/Indicator: YG1024, Metabolic Activation: S-9, Method: PREINCUBATION): active; positive
- mutagenic call (Test System: AMES SALMONELLA TYPHIMURIUM, Strain/Indicator: YG1029, Metabolic Activation: S-9, Method: PREINCUBATION): active; positive

SMILES: CN(Cc1ccc([N+](=O)[O-])cc1)N=O
- mutagenic call (Test System: AMES SALMONELLA TYPHIMURIUM, Strain/Indicator: TA1535, Metabolic Activation: HAMSTER, LIVER, S-9, AROCLOR 1254, Method: STANDARD PLATE): active; positive
- mutagenic call (Test System: AMES SALMONELLA TYPHIMURIUM, Strain/Indicator: TA1535, Metabolic Activation: NONE, Method: STANDARD PLATE): inactive; negative

SMILES: N#Cc1c(Cl)c(Cl)c(Cl)c(C#N)c1Cl
- mutagenic call (End Point: IN VITRO CHROMOSOMAL ABERRATIONS, Test System: CHINESE HAMSTER OVARY CELLS, Metabolic Activation: NONE): active; positive
- mutagenic call (End Point: IN VITRO CHROMOSOMAL ABERRATIONS, Test System: CHINESE HAMSTER OVARY CELLS, Metabolic Activation: RAT, LIVER, S-9, AROCLOR 1254): active; positive

SMILES: COC1=CC(=O)c2c(nc(C)c3c2[nH]c2ccncc23)C1=O
- mutagenic call (Test System: AMES SALMONELLA TYPHIMURIUM, Strain/Indicator: TA97A, Metabolic Activation: NONE, Method: STANDARD PLATE): active; positive
- mutagenic call (Test System: AMES SALMONELLA TYPHIMURIUM, Strain/Indicator: TA97A, Metabolic Activation: RAT LIVER S-9, AROCLOR 1254, Method: STANDARD PLATE): inactive; negative
- mutagenic call [2]: active; positive
- mutagenic call (Test System: AMES SALMONELLA TYPHIMURIUM, Strain/Indicator: TA98, Metabolic Activation: RAT LIVER S-9, AROCLOR 1254, Method: STANDARD PLATE): active; positive
- mutagenic call [4]: active; positive
- mutagenic call (Test System: AMES SALMONELLA TYPHIMURIUM, Strain/Indicator: TA100, Metabolic Activation: RAT LIVER S-9, AROCLOR 1254, Method: STANDARD PLATE): active; positive
- mutagenic call (Test System: AMES SALMONELLA TYPHIMURIUM, Strain/Indicator: TA102, Metabolic Activation: NONE, Method: STANDARD PLATE): active; positive
- mutagenic call (Test System: AMES SALMONELLA TYPHIMURIUM, Strain/Indicator: TA102, Metabolic Activation: RAT LIVER S-9, AROCLOR 1254, Method: STANDARD PLATE): active; positive

SMILES: N[C@@H]1CCCCN1.[Cl][Pt][Cl]
- mutagenic call [1]: active; positive
- mutagenic call [3]: active; positive
- mutagenic call (Test System: AMES SALMONELLA TYPHIMURIUM, Strain/Indicator: TA100, Metabolic Activation: RAT, LIVER, S-9, AROCLOR 1254, Method: PREINCUBATION): active; positive

SMILES: C=CC
- mutagenic call (Test System: MOUSE LYMPHOMA, Strain/Indicator: L5178Y (TK+/TK-), Metabolic Activation: NONE, Method: SUSPENSION/PLATE): inactive; negative
- mutagenic call (Test System: MOUSE LYMPHOMA, Strain/Indicator: L5178Y (TK+/TK-), Metabolic Activation: RAT, LIVER, S-9, Method: SUSPENSION/PLATE): inactive; negative

SMILES: Nc1cccc2c1-c1cccc3cccc-2c13
- mutagenic call (Test System: AMES SALMONELLA TYPHIMURIUM, Strain/Indicator: TA98, Metabolic Activation: RAT, LIVER, S-9, AROCLOR 1254 (2 OR 4%), Method: STANDARD PLATE): active; positive
- mutagenic call (Test System: AMES SALMONELLA TYPHIMURIUM, Strain/Indicator: TA100, Metabolic Activation: RAT, LIVER, S-9, AROCLOR 1254 (2%), Method: STANDARD PLATE): active; positive
- mutagenic call (Test System: AMES SALMONELLA TYPHIMURIUM, Strain/Indicator: TA1535, Metabolic Activation: RAT, LIVER, S-9, AROCLOR 1254 (2%), Method: STANDARD PLATE): inactive; negative
- mutagenic call (Test System: AMES SALMONELLA TYPHIMURIUM, Strain/Indicator: TA1537, Metabolic Activation: RAT, LIVER, S-9, AROCLOR 1254 (2%), Method: STANDARD PLATE): active; positive

SMILES: CCCCCCCC(O)C=CC=O (stereo unspecified)
- mutagenic call (End Point: IN VITRO CHROMOSOMAL ABERRATIONS, Test System: RAT HEPATOCYTES, Metabolic Activation: NONE): active; positive
- mutagenic call (End Point: IN VITRO MICRONUCLEUS, Test System: RAT HEPATOCYTES, Metabolic Activation: NONE): inactive; negative

SMILES: CC(C)CC(=O)N=c1sn(C(=O)CC(C)C)c2ccc([N+](=O)[O-])cc12
- mutagenic call (Test System: AMES SALMONELLA TYPHIMURIUM, Strain/Indicator: TA100, Metabolic Activation: S-9, Method: STANDARD PLATE): active; positive

SMILES: CCOc1cccc2cccnc12
- mutagenic call [5]: inactive; negative

SMILES: C[C@H](CCC(=O)O)[C@H]1CC[C@H]2[C@@H]3CC[C@@H]4C[C@H](O)CC[C@]4(C)[C@H]3C[C@@H](O)[C@]12C
- mutagenic call (Test System: AMES SALMONELLA TYPHIMURIUM, Strain/Indicator: TA98, Metabolic Activation: NONE, Method: FLUCTUATION TEST): inactive; negative
- mutagenic call [1]: inactive; negative
- mutagenic call (Test System: AMES SALMONELLA TYPHIMURIUM, Strain/Indicator: TA98, Metabolic Activation: RAT, LIVER, S-9, PCB, Method: PREINCUBATION): inactive; negative
- mutagenic call (Test System: AMES SALMONELLA TYPHIMURIUM, Strain/Indicator: TA100, Metabolic Activation: NONE, Method: FLUCTUATION TEST): inactive; negative
